In patent publication US8834907B2, “Active nanocomposite materials and production method thereof” (Nanobiomatters, S.L., priority 2008, dated 2014):

Test system: Salmonella
Details: used in suspension
Procedure: To evaluate the antimicrobial capacity of PLA films, 600 mg of film were weighed, for both control without clay and for the sample with antimicrobial clay, and placed into 10 mL of sterile culture medium. They were stored at 4° C. for four weeks, prior to inoculation with Salmonella spp.

O=[N+]([O-])[O-].[Ag+] [silver nitrate]
minimum bactericidal concentration (reducing the population to zero): around 100 ppm
